Series [1] relates to Staphylococcus aureus. Briefly: Antibacterial activity against methicillin-resistant Staphylococcus aureus N315 incubated for 24 hrs by two fold serial dilution method. The class given is functional. The settings on record: N315, 24 h.
In series [2] the test system is Enterococcus faecalis. Put plainly: Antibacterial activity against Enterococcus faecalis incubated for 24 hrs by two fold serial dilution method. The class given is functional.
The test system of series [3] is Staphylococcus aureus. Briefly: Antibacterial activity against Staphylococcus aureus ATCC 29213 incubated for 24 hrs by two fold serial dilution method. The settings on record: ATCC 29213, 24 h. Format: functional.
For series [4], the system named is Klebsiella pneumoniae. Put plainly: Antibacterial activity against Klebsiella pneumoniae incubated for 24 hrs by two fold serial dilution method. Format: functional.
In series [5] the test system is Escherichia coli. Put plainly: Antibacterial activity against Escherichia coli incubated for 24 hrs by two fold serial dilution method. The class given is functional.
For series [6], the system named is Pseudomonas aeruginosa. Put plainly: Antibacterial activity against Pseudomonas aeruginosa incubated for 24 hrs by two fold serial dilution method. Format: functional.
Series [7] has as its system Acinetobacter baumannii. Briefly: Antibacterial activity against Acinetobacter baumannii incubated for 24 hrs by two fold serial dilution method. Format: functional.
The nature of series [8]: Cytotoxicity activity against human A549 cells assessed as cell viability at 2 to 64 ug/ml incubated for 24 hrs by MTT assay relative to control. To be noted: read-out: Activity. The class given is cell-based. (In general: Tetrazolium dyes change colour on reduction, which living cells bring about.)

Converted amounts (≈) assume the structure as drawn.

As to `CC(=O)/C(=C/c1cn(CC(=O)N2CCOCC2)c2ccccc12)n1cc([N+](=O)[O-])nc1C`, the MIC (in general, the least concentration at which growth counts as inhibited) stood at 2 µg/mL (≈ 4.57 µM) in series [1]; 32 µg/mL (≈ 73.2 µM) in series [2]; 64 µg/mL (≈ 146 µM) in series [3]; 16 µg/mL (≈ 36.6 µM) in series [4]; 32 µg/mL (≈ 73.2 µM) in series [5]; 128 µg/mL (≈ 293 µM) in series [6]. Moreover, the MIC in series [7] is 256 µg/mL (≈ 585 µM).
Turning to `CCn1cc(C(=O)O)c(=O)c2cc(F)c(N3CCNCC3)cc21` [NORFLOXACIN], the MIC turned out to be 8 µg/mL (≈ 25.1 µM) in series [1]; 4 µg/mL (≈ 12.5 µM) in series [2]; 2 µg/mL (≈ 6.26 µM) in series [3]; 4 µg/mL (≈ 12.5 µM) in series [4]; 16 µg/mL (≈ 50.1 µM) in series [5]; 2 µg/mL (≈ 6.26 µM) in series [6]. In series [7], this compound registered an MIC of 8 µg/mL (≈ 25.1 µM).
Take `CC(=O)/C(=C/c1cn(CC(=O)N(C)c2ccccc2)c2ccccc12)n1cc([N+](=O)[O-])nc1C`: the MIC amounted to 1 µg/mL (≈ 2.19 µM) in series [1]; 64 µg/mL (≈ 140 µM) in series [2]; 128 µg/mL (≈ 280 µM) in series [3]; 32 µg/mL (≈ 69.9 µM) in series [4]; 32 µg/mL (≈ 69.9 µM) in series [5]; 128 µg/mL (≈ 280 µM) in series [6]. The compound also showed an MIC in series [7] of 128 µg/mL (≈ 280 µM).
On to `CC(=O)/C(=C/c1cn(CC(=O)N2CCN(Cc3ccc(Cl)cc3Cl)CC2)c2ccccc12)n1cc([N+](=O)[O-])nc1C`, for which the MIC was determined as 64 µg/mL (≈ 107 µM) in series [1]; 128 µg/mL (≈ 215 µM) in series [2]; 256 µg/mL (≈ 430 µM) in series [3]; 128 µg/mL (≈ 215 µM) in series [4]; 512 µg/mL (≈ 860 µM) in series [5]; 256 µg/mL (≈ 430 µM) in series [6]. In addition, in series [7], the minimum inhibitory concentration (MIC) was 256 µg/mL (≈ 430 µM).
Consider `C#CCn1cc(/C=C(/C(C)=O)n2cc([N+](=O)[O-])nc2C)c2ccccc21`, for which the MIC in series [1] came out at 2 µg/mL (≈ 5.74 µM); in series [2] it was 32 µg/mL (≈ 91.9 µM); in series [3], 128 µg/mL (≈ 367 µM); in series [4], 128 µg/mL (≈ 367 µM); in series [5], 512 µg/mL (≈ 1470 µM); in series [6], 128 µg/mL (≈ 367 µM). The compound also yielded an MIC in series [7] of 128 µg/mL (≈ 367 µM).
`CC(=O)/C(=C/c1cn(CC(=O)N2CCN(Cc3ccc(F)cc3)CC2)c2cc(C)ccc12)n1cc([N+](=O)[O-])nc1C`: the MIC in series [1] was found to be 2 µg/mL (≈ 3.58 µM); in series [2], 64 µg/mL (≈ 115 µM); in series [3], 512 µg/mL (≈ 917 µM); in series [4], 512 µg/mL (≈ 917 µM); in series [5], 512 µg/mL (≈ 917 µM); in series [6] it was 128 µg/mL (≈ 229 µM). For the same compound, the lowest concentration to inhibit growth in series [7] (MIC) was 512 µg/mL (≈ 917 µM).
Consider `CC(=O)Cn1cc(/C=C(/C(C)=O)n2cc([N+](=O)[O-])nc2C)c2ccccc21`, for which the MIC in series [1] was 0.5 µg/mL (≈ 1.36 µM); in series [2] it was 16 µg/mL (≈ 43.7 µM); in series [3] it was 256 µg/mL (≈ 699 µM); in series [4] it was 2 µg/mL (≈ 5.46 µM); in series [5], 8 µg/mL (≈ 21.8 µM); in series [6], 512 µg/mL (≈ 1400 µM). The compound also displayed an MIC in series [7] of 128 µg/mL (≈ 349 µM).
On to `C=CCn1cc(/C=C(/C(C)=O)n2cc([N+](=O)[O-])nc2C)c2ccccc21`, for which the MIC in series [1] stood at 32 µg/mL (≈ 91.3 µM); in series [2], 64 µg/mL (≈ 183 µM); in series [3], 4 µg/mL (≈ 11.4 µM); in series [4], 32 µg/mL (≈ 91.3 µM); in series [5], 32 µg/mL (≈ 91.3 µM); in series [6], 16 µg/mL (≈ 45.7 µM). The MIC in series [7] was determined as 16 µg/mL (≈ 45.7 µM).
Consider `CCN(CC)C(=O)Cn1cc(/C=C(/C(C)=O)n2cc([N+](=O)[O-])nc2C)c2ccc(C)cc21`, for which the MIC in series [1] was 4 µg/mL (≈ 9.14 µM); in series [2] it was 64 µg/mL (≈ 146 µM); in series [3] it was 16 µg/mL (≈ 36.6 µM); in series [4], 512 µg/mL (≈ 1170 µM); in series [5], 128 µg/mL (≈ 293 µM); in series [6], 128 µg/mL (≈ 293 µM). The same compound had an MIC in series [7] of 512 µg/mL (≈ 1170 µM).
`COc1cccc2c1C(=O)c1c(O)c3c(c(O)c1C2=O)C[C@@](O)(C(=O)CO)C[C@@H]3O[C@H]1C[C@H](N)[C@H](O)[C@H](C)O1` [DOXORUBICIN]: the viability at 24 h in series [8] was below 75%.
With `NC1CCN(c2c(F)cc3c(=O)c(C(=O)O)cn(C4CC4)c3c2Cl)C1` (stereo not given) [CLINAFLOXACIN], the MIC in series [1] stood at 16 µg/mL (≈ 43.7 µM); in series [2], 2 µg/mL (≈ 5.47 µM); in series [3], 0.5 µg/mL (≈ 1.37 µM); in series [4] it was 32 µg/mL (≈ 87.5 µM); in series [5], 64 µg/mL (≈ 175 µM); in series [6] it was 32 µg/mL (≈ 87.5 µM). In series [7], this compound gave an MIC of 16 µg/mL (≈ 43.7 µM).
With `CC(=O)/C(=C/c1cn(CC(=O)N2CCCCC2)c2cc(Cl)ccc12)n1cc([N+](=O)[O-])nc1C`, the minimum inhibitory concentration (MIC) in series [1] worked out at 64 µg/mL (≈ 136 µM); in series [2] it was 4 µg/mL (≈ 8.51 µM); in series [3], 512 µg/mL (≈ 1090 µM); in series [4] it was 64 µg/mL (≈ 136 µM); in series [5], 64 µg/mL (≈ 136 µM); in series [6], 256 µg/mL (≈ 545 µM). In addition, in series [7], the MIC stood at 512 µg/mL (≈ 1090 µM).
With `CC(=O)/C(=C/c1cn(CC(=O)N(C(C)C)C(C)C)c2ccccc12)n1cc([N+](=O)[O-])nc1C`, the MIC in series [1] stood at 1 µg/mL (≈ 2.21 µM); in series [2], 64 µg/mL (≈ 142 µM); in series [3] it was 512 µg/mL (≈ 1130 µM); in series [4], 16 µg/mL (≈ 35.4 µM); in series [5], 64 µg/mL (≈ 142 µM); in series [6], 512 µg/mL (≈ 1130 µM). In series [7], the MIC was determined as 512 µg/mL (≈ 1130 µM).
Regarding `CC(=O)/C(=C/c1cn(CC(=O)N2CCN(Cc3ccc(F)cc3)CC2)c2cc(Cl)ccc12)n1cc([N+](=O)[O-])nc1C`, the MIC in series [1] is 512 µg/mL (≈ 884 µM); in series [2] it was 2 µg/mL (≈ 3.45 µM); in series [3], 512 µg/mL (≈ 884 µM); in series [4] it was 512 µg/mL (≈ 884 µM); in series [5] it was 512 µg/mL (≈ 884 µM); in series [6], 128 µg/mL (≈ 221 µM). In series [7], the MIC is 512 µg/mL (≈ 884 µM).
For `CC(=O)/C(=C/c1cn(CC(=O)N(C2CCCCC2)C2CCCCC2)c2ccccc12)n1cc([N+](=O)[O-])nc1C`, the MIC in series [1] turned out to be 2 µg/mL (≈ 3.76 µM); in series [2], 128 µg/mL (≈ 241 µM); in series [3] it was 512 µg/mL (≈ 963 µM); in series [4], 8 µg/mL (≈ 15 µM); in series [5], 32 µg/mL (≈ 60.2 µM); in series [6], 512 µg/mL (≈ 963 µM). This compound also gave an MIC in series [7] of 512 µg/mL (≈ 963 µM).
Consider `CCN(CC)C(=O)Cn1cc(/C=C(/C(C)=O)n2cc([N+](=O)[O-])nc2C)c2ccc(Cl)cc21`, for which the MIC in series [1] came to 512 µg/mL (≈ 1120 µM); in series [2] it was 1 µg/mL (≈ 2.18 µM); in series [3], 512 µg/mL (≈ 1120 µM); in series [4] it was 512 µg/mL (≈ 1120 µM); in series [5] it was 512 µg/mL (≈ 1120 µM); in series [6] it was 128 µg/mL (≈ 280 µM). The compound also yielded an MIC in series [7] of 512 µg/mL (≈ 1120 µM).
As for `CC(=O)/C(=C/c1cn(CC(=O)N2CCCCC2)c2cc(C)ccc12)n1cc([N+](=O)[O-])nc1C`, the MIC in series [1] turned out to be 1 µg/mL (≈ 2.22 µM); in series [2], 128 µg/mL (≈ 285 µM); in series [3] it was 16 µg/mL (≈ 35.6 µM); in series [4] it was 32 µg/mL (≈ 71.2 µM); in series [5], 256 µg/mL (≈ 570 µM); in series [6], 32 µg/mL (≈ 71.2 µM). The MIC in series [7] was determined as 256 µg/mL (≈ 570 µM).
Regarding `CC(=O)/C(=C/c1cn(CC(=O)N2CCCC2)c2ccccc12)n1cc([N+](=O)[O-])nc1C`, the MIC was 64 µg/mL (≈ 152 µM) in series [1]; 64 µg/mL (≈ 152 µM) in series [2]; 64 µg/mL (≈ 152 µM) in series [3]; 16 µg/mL (≈ 38 µM) in series [4]; 8 µg/mL (≈ 19 µM) in series [5]; 2 µg/mL (≈ 4.75 µM) in series [6]. For the same compound, in series [7], the lowest concentration to inhibit growth (MIC) was 1 µg/mL (≈ 2.37 µM).

The values are drawn from ChEMBL document CHEMBL4351025, “Indole-nitroimidazole conjugates as efficient manipulators to decrease the genes expression of methicillin-resistant Staphylococcus aureus” (Eur J Med Chem, 2019).
